For 34 compounds, EC50 results are on record in patent US20260125375A1 (Pfizer Inc., priority 2022, published 2026).

Structures are written as SMILES. Like-named read-outs stand apart in the source and are kept apart here.

In the assay the target is T1, C-CBL (Homo sapiens, UniProt P22681).
T1 construct: endogenous in cells; host or cells: Jurkat HiBit-IL2 reporter cells, CBL-B knocked out by CRISPR
The experiment in a line: Jurkat HiBit-IL2 assay (CBL-B KO), reporter cell line expressing C-CBL only. The class given is cell-based. The note with it: geometric mean, read-out: CBL-B KO EC50 (nM) GMean. The method in brief: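 IL-2 secretion was measured by HiBiT luminescence after 1 h compound exposure (0.1% DMSO) and 4 h TCR/CD28 stimulation (final anti-CD3 1 μg/ml, anti-CD28 2 μg/ml, 37 °C) of Jurkat reporters lacking c-CBL or CBL-B. EC50 came from fold-of-effect versus stimulated-only cells, as geometric means across tests.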

The mark [1] stands for this setting: CBL-B KO (C-CBL only), anti-CD3/anti-CD28 stimulation 4 hours, Table 16a.
Where [2] appears, read: CBL-B KO (expressing C-CBL only), Table 16b (further repetition).

Take `C[C@H](N[C@H]1CCOC1)c1nc(C(F)(F)F)cc2c(-c3cccc([C@H](c4nncn4C)C4CCC4)c3)n[nH]c12` (single isomer, unassigned) [Example C2]: the EC50 under setting [1] amounted to 641 nM. The same measure, in the same setting: then `C[C@@H](N[C@H]1CCOC1)c1nc(C(F)(F)F)cc2c(-c3cccc([C@H](c4nncn4C)C4CCC4)c3)n[nH]c12` (single isomer, unassigned) [Example C3], with 639 nM. Take `C[C@H](NC1CCCC1)c1nc(C(F)(F)F)cc2c(-c3cccc([C@H](c4nncn4C)C4CCC4)c3)n[nH]c12` (single isomer, unassigned) [Example C10]: the EC50 under setting [1] is above 2310 nM. With `C[C@@H](NC1CCCC1)c1nc(C(F)(F)F)cc2c(-c3cccc([C@H](c4nncn4C)C4CCC4)c3)n[nH]c12` (single isomer, unassigned) [Example C11], the EC50 was determined as 46 nM under setting [1] and 32 nM under setting [2]. For `C[C@H](N[C@H]1CCC(F)(F)C1)c1nc(C(F)(F)F)cc2c(-c3cccc(C4(Cc5nncn5C)COC4)c3)n[nH]c12` (single isomer, unassigned) [Example C12] the same measures were 25 nM and 16 nM. For the compound `C[C@@H](N[C@H]1CCC(F)(F)C1)c1nc(C(F)(F)F)cc2c(-c3cccc(C4(Cc5nncn5C)COC4)c3)n[nH]c12` (single isomer, unassigned) [Example C13], the EC50 under setting [1] amounted to 63 nM. Still for that read-out and setting: then `C[C@@H](NC1CCCC1)c1nc(C(F)(F)F)cc2c(-c3cccc(C4(Cc5nncn5C)COC4)c3)n[nH]c12` (single isomer, unassigned) [Example C15], with 229 nM; and `C[C@H](N[C@@H]1CCC(F)(F)C1)c1nc(C(F)(F)F)cc2c(-c3cccc(C4(Cc5nncn5C)COC4)c3)n[nH]c12` (single isomer, unassigned) [Example C17], with 196 nM.

As for `C[C@@H](N[C@@H]1CCC(F)(F)C1)c1nc(C(F)(F)F)cc2c(-c3cccc(C4(Cc5nncn5C)COC4)c3)n[nH]c12` (single isomer, unassigned) [Example C18], the EC50 is, setting by setting: under setting [1], 178 nM; under setting [2], 49 nM. For `CC(c1nc(C(F)(F)F)cc2c(-c3cccc(C4(Cc5nncn5C)COC4)c3)n[nH]c12)N1CCC[C@H](C)C1` (single isomer, unassigned) [Example C19], the half-maximal effective concentration (EC50) under setting [1] amounted to 439 nM. Take `CC(c1nc(C(F)(F)F)cc2c(-c3cccc(C4(Cc5nncn5C)COC4)c3)n[nH]c12)N1CCC[C@H](C)C1` (single isomer, unassigned) [Example C20]: the EC50 was found to be 78 nM under setting [1] and 56 nM under setting [2]. Regarding `CC(c1nc(C(F)(F)F)cc2c(-c3cccc(C4(Cc5nncn5C)COC4)c3)n[nH]c12)N1CCCCC1` (single isomer, unassigned) [Example C21, 3-(3-{3-[(4-methyl-4H-1,2,4-triazol-3-yl)methyl]oxetan-3-yl}phenyl)-7-[(1ξ)-1-(piperidin-1-yl)ethyl]-5-(trifluoromethyl)-1H-pyrazolo[3,4-c]pyridine], the EC50 under setting [1] was determined as 851 nM.

As for `CC(c1nc(C(F)(F)F)cc2c(-c3cccc(C4(Cc5nncn5C)COC4)c3)n[nH]c12)N1CCCCC1` (single isomer, unassigned) [Example C22, 3-(3-{3-[(4-methyl-4H-1,2,4-triazol-3-yl)methyl]oxetan-3-yl}phenyl)-7-[(1ξ)-1-(piperidin-1-yl)ethyl]-5-(trifluoromethyl)-1H-pyrazolo[3,4-c]pyridine], the EC50 under setting [1] was determined as 942 nM. The same measure, in the same setting: then `CC(c1nc(C(F)(F)F)cc2c(-c3cccc(C4(Cc5nncn5C)COC4)c3)n[nH]c12)N1CCOCC1` (single isomer, unassigned) [Example C23, 3-(3-{3-[(4-methyl-4H-1,2,4-triazol-3-yl)methyl]oxetan-3-yl}phenyl)-7-[(1ξ)-1-(morpholin-4-yl)ethyl]-5-(trifluoromethyl)-1H-pyrazolo[3,4-c]pyridine], with 800 nM; and `CC(c1nc(C(F)(F)F)cc2c(-c3cccc(C4(Cc5nncn5C)COC4)c3)n[nH]c12)N1CCOCC1` (single isomer, unassigned) [Example C24, 3-(3-{3-[(4-methyl-4H-1,2,4-triazol-3-yl)methyl]oxetan-3-yl}phenyl)-7-[(1ξ)-1-(morpholin-4-yl)ethyl]-5-(trifluoromethyl)-1H-pyrazolo[3,4-c]pyridine], with 2970 nM; and `CC(c1nc(C(F)(F)F)cc2c(-c3cccc(C4(Cc5nncn5C)COC4)c3)n[nH]c12)N1C[C@@H](F)[C@H](F)C1` (single isomer, unassigned) [Example C25], with 252 nM. Turning to `C[C@H](c1nc(C(F)(F)F)cc2c(-c3cccc(C4(Cc5nncn5C)COC4)c3)n[nH]c12)N1C[C@@H](F)[C@H](F)C1` (single isomer, unassigned) [Example C26], the half-maximal effective concentration (EC50) under setting [1] was found to be 1850 nM. On the same count and under the same terms, then `CC(NC1CNC1)c1nc(C(F)(F)F)cc2c(-c3cccc(C4(Cc5nncn5C)COC4)c3)n[nH]c12` (single isomer, unassigned) [Example C27, N-{(1ξ)-1-[3-(3-{3-[(4-methyl-4H-1,2,4-triazol-3-yl)methyl]oxetan-3-yl}phenyl)-5-(trifluoromethyl)-1H-pyrazolo[3,4-c]pyridin-7-yl]ethyl}azetidin-3-amine], with above 4300 nM; and `CC(NC1CNC1)c1nc(C(F)(F)F)cc2c(-c3cccc(C4(Cc5nncn5C)COC4)c3)n[nH]c12` (single isomer, unassigned) [Example C28, N-{(1ξ)-1-[3-(3-{3-[(4-methyl-4H-1,2,4-triazol-3-yl)methyl]oxetan-3-yl}phenyl)-5-(trifluoromethyl)-1H-pyrazolo[3,4-c]pyridin-7-yl]ethyl}azetidin-3-amine], with above 5190 nM. On the same count and under the same terms, for `CC1CN(Cc2nc(C(F)(F)F)cc3c(-c4cccc(C5(Cc6nncn6C)COC5)c4)n[nH]c23)CCC1(F)F` (single isomer, unassigned) [Example C31, 7-{[(3ξ)-4,4-difluoro-3-methylpiperidin-1-yl]methyl}-3-(3-{3-[(4-methyl-4H-1,2,4-triazol-3-yl)methyl]oxetan-3-yl}phenyl)-5-(trifluoromethyl)-1H-pyrazolo[3,4-c]pyridine] the value was 1370 nM. `CC1CN(Cc2nc(C(F)(F)F)cc3c(-c4cccc(C5(Cc6nncn6C)COC5)c4)n[nH]c23)CCC1(F)F` (single isomer, unassigned) [Example C32, 7-{[(3ξ)-4,4-difluoro-3-methylpiperidin-1-yl]methyl}-3-(3-{3-[(4-methyl-4H-1,2,4-triazol-3-yl)methyl]oxetan-3-yl}phenyl)-5-(trifluoromethyl)-1H-pyrazolo[3,4-c]pyridine]: the EC50 runs as follows: under setting [1], 1190 nM; under setting [2], 110 nM.

Regarding `CC(C)NC(C)c1nc(C(F)(F)F)cc2c(-c3cccc([C@H](c4nncn4C)C4CCC4)c3)n[nH]c12` (single isomer, unassigned) [Example C34], the concentration giving a half-maximal response (EC50) amounted to 892 nM under setting [1] and 428 nM under setting [2]. On to `CC(C)NC(C)c1nc(C(F)(F)F)cc2c(-c3cccc([C@H](c4nncn4C)C4CCC4)c3)n[nH]c12` (single isomer, unassigned) [Example C35], for which the EC50 under setting [1] came to 172 nM.

Turning to `C[C@H](N[C@H]1C[C@@H](O)C1)c1nc(C(F)(F)F)cc2c(-c3cccc([C@H](c4nncn4C)C4CCC4)c3)n[nH]c12` (single isomer, unassigned) [Example C36], the EC50 under setting [1] was found to be 173 nM and the EC50 under setting [2] was found to be 160 nM. As to `C[C@@H](N[C@H]1C[C@@H](O)C1)c1nc(C(F)(F)F)cc2c(-c3cccc([C@H](c4nncn4C)C4CCC4)c3)n[nH]c12` (single isomer, unassigned) [Example C37], under setting [1], the EC50 was 1040 nM. In the case of `C[C@H](N[C@H]1CCC[C@@H]1O)c1nc(C(F)(F)F)cc2c(-c3cccc([C@H](c4nncn4C)C4CCC4)c3)n[nH]c12` (single isomer, unassigned) [Example C47], the concentration giving a half-maximal response (EC50) under setting [1] is 105 nM and the EC50 under setting [2] turned out to be 76 nM. Regarding `CCNC(C)c1nc(C(F)(F)F)cc2c(-c3cccc([C@H](c4nncn4C)C4CCC4)c3)n[nH]c12` (single isomer, unassigned) [Example C89], the EC50 under setting [2] worked out at 471 nM. The same measure, in the same setting: for `C[C@@H](N[C@H]1C[C@H](O)C1)c1nc(C(F)(F)F)cc2c(-c3cccc([C@H](c4nncn4C)C4CCC4)c3)n[nH]c12` (single isomer, unassigned) [Example C92] the value was 525 nM. Regarding `C[C@H](N[C@H]1C[C@@H](F)C1)c1nc(C(F)(F)F)cc2c(-c3cccc([C@H](c4nncn4C)C4CCC4)c3)n[nH]c12` (single isomer, unassigned) [Example C95], the EC50 under setting [2] is 230 nM. Same read-out and setting: for `C[C@@H](N[C@H]1C[C@@H](F)C1)c1nc(C(F)(F)F)cc2c(-c3cccc([C@H](c4nncn4C)C4CCC4)c3)n[nH]c12` (single isomer, unassigned) [Example C96] the value was 574 nM. With `C[C@H](N[C@@H]1CCOC1)c1nc(C(F)(F)F)cc2c(-c3cccc([C@H](c4nncn4C)C4CCC4)c3)n[nH]c12` (single isomer, unassigned) [Example D2], the concentration for a half-maximal effect (EC50) came to 465 nM under setting [1] and 425 nM under setting [2]. For `C[C@@H](N[C@@H]1CCOC1)c1nc(C(F)(F)F)cc2c(-c3cccc([C@H](c4nncn4C)C4CCC4)c3)n[nH]c12` (single isomer, unassigned) [Example D3], in that order: 472 nM and 333 nM. As for `C[C@@H](c1nc(C(F)(F)F)cc2c(-c3cccc(C4(Cc5nncn5C)COC4)c3)n[nH]c12)N1CCC(F)(F)C1` (single isomer, unassigned) [Example D5], the EC50 under setting [1] came to 1380 nM. Consider `C[C@H](c1nc(C(F)(F)F)cc2c(-c3cccc(C4(Cc5nncn5C)COC4)c3)n[nH]c12)N1CCC(F)(F)C1` (single isomer, unassigned) [Example D6], for which the EC50 under setting [1] was 235 nM.
